Laboratory results from the NIST ThermoML archive (doi:10.1016/j.jct.2007.05.005).
“And” between values parts separate entries of the source, which are not always exact repeats. Equal values may be shown once. Numbers after ± are expanded uncertainties.

What was measured:
[1] = 101.3 kPa, Liquid; for speed of sound: Sing-around technique in a fixed-path interferometer
[2] = xn = mol fraction of the nth substance listed; conditions: 101.3 kPa, Liquid, x2 = 0; for speed of sound: Sing-around technique in a fixed-path interferometer

SMILES | mass density ([1]; 288.15 K) | speed of sound ([1]; 288.15 K) | mass density ([1]; 298.15 K) | speed of sound ([1]; 298.15 K) | mass density ([1]; 323.15 K) | speed of sound ([1]; 323.15 K) | speed of sound ([2]; 288.15 K) [m/s] | mass density ([2]; 288.15 K) [kg/m3] | speed of sound ([2]; 298.15 K) [m/s] | mass density ([2]; 298.15 K) [kg/m3] | speed of sound ([2]; 323.15 K) [m/s] | mass density ([2]; 323.15 K) [kg/m3] | other results
CC(C)CC(C)(C)C [2,2,4-trimethylpentane] | 695.948 ± 1.2 kg/m3 | 1124.3 ± 2.2 m/s | 687.749 ± 1.2 kg/m3 | 1082.2 ± 2.2 m/s | 666.832 ± 1.3 kg/m3 | 979.25 ± 2.2 m/s |  |  |  |  |  |  | 
CC(C)CC(C)(C)C [2,2,4-trimethylpentane] + CCOC(C)(C)C |  |  |  |  |  |  | 1124.3 ± 2.2 | 695.948 ± 1.2 | 1082.2 ± 2.2 | 687.749 ± 1.2 | 979.25 ± 2.2 | 666.832 ± 1.3 | 
CCOC(C)(C)C [2-ethoxy-2-methylpropane] | 745.656 ± 1.1 kg/m3 and 744.955 ± 1.1 kg/m3 | 1078.9 ± 2.2 m/s and 1076.4 ± 2.2 m/s | 735.357 ± 1.1 kg/m3 and 734.806 ± 1.1 kg/m3 | 1033.2 ± 2.2 m/s and 1031 ± 2.2 m/s | 709.007 ± 1.2 kg/m3 and 708.642 ± 1.2 kg/m3 and 708.996 ± 1.2 kg/m3 | 922.48 ± 2.2 m/s and 920.73 ± 2.2 m/s and 922.08 ± 2.2 m/s |  |  |  |  |  |  | mass density ([1]; 303.15 K): 730.186 ± 1.1 kg/m3; speed of sound ([1]; 303.15 K): 1010.2 ± 2.2 m/s; mass density ([1]; 313.15 K): 719.687 ± 1.2 kg/m3; speed of sound ([1]; 313.15 K): 965.87 ± 2.2 m/s
CC(C)(C)O [2-methylpropan-2-ol] |  |  |  |  | 753.679 ± 1 kg/m3 | 1013 ± 2.2 m/s |  |  |  |  |  |  | mass density ([1]; 303.15 K): 775.028 ± 0.98 kg/m3; speed of sound ([1]; 303.15 K): 1098.2 ± 2.2 m/s; mass density ([1]; 313.15 K): 764.554 ± 1 kg/m3; speed of sound ([1]; 313.15 K): 1055.4 ± 2.2 m/s
CC(C)(C)O [2-methylpropan-2-ol] + CCOC(C)(C)C |  |  |  |  |  |  |  |  |  |  | 1013 ± 2.2 | 753.679 ± 1 | speed of sound ([2]; 303.15 K): 1098.2 ± 2.2 m/s; mass density ([2]; 303.15 K): 775.028 ± 0.98 kg/m3; speed of sound ([2]; 313.15 K): 1055.4 ± 2.2 m/s; mass density ([2]; 313.15 K): 764.554 ± 1 kg/m3
c1ccccc1 [benzene] | 884.183 ± 0.65 kg/m3 | 1345.5 ± 2.2 m/s | 873.52 ± 0.68 kg/m3 | 1298.3 ± 2.2 m/s | 846.641 ± 0.77 kg/m3 | 1184.6 ± 2.2 m/s |  |  |  |  |  |  | 
c1ccccc1 [benzene] + CCOC(C)(C)C |  |  |  |  |  |  | 1345.5 ± 2.2 | 884.183 ± 0.65 | 1298.3 ± 2.2 | 873.52 ± 0.68 | 1184.6 ± 2.2 | 846.641 ± 0.77 | 
CCO [ethanol] | 793.644 ± 0.93 kg/m3 | 1177.3 ± 2.2 m/s | 785.082 ± 0.95 kg/m3 | 1142.4 ± 2.2 m/s | 763.177 ± 1 kg/m3 | 1059.3 ± 2.1 m/s |  |  |  |  |  |  | 
CCO [ethanol] + CCOC(C)(C)C |  |  |  |  |  |  | 1177.3 ± 2.2 | 793.644 ± 0.93 | 1142.4 ± 2.2 | 785.082 ± 0.95 | 1059.3 ± 2.1 | 763.177 ± 1 | 
CCc1ccccc1 [ethylbenzene] | 870.736 ± 0.69 kg/m3 | 1359.1 ± 2.2 m/s | 862.068 ± 0.72 kg/m3 | 1316.2 ± 2.2 m/s | 840.054 ± 0.78 kg/m3 | 1213.6 ± 2.2 m/s |  |  |  |  |  |  | 
CCc1ccccc1 [ethylbenzene] + CCOC(C)(C)C |  |  |  |  |  |  | 1359.1 ± 2.2 | 870.736 ± 0.69 | 1316.2 ± 2.2 | 862.068 ± 0.72 | 1213.6 ± 2.2 | 840.054 ± 0.78 | 
Cc1ccccc1 [toluene] | 871.457 ± 0.69 kg/m3 | 1347.5 ± 2.2 m/s | 862.173 ± 0.72 kg/m3 | 1303.4 ± 2.2 m/s | 838.706 ± 0.79 kg/m3 | 1196.6 ± 2.2 m/s |  |  |  |  |  |  | 
Cc1ccccc1 [toluene] + CCOC(C)(C)C |  |  |  |  |  |  | 1347.5 ± 2.2 | 871.457 ± 0.69 | 1303.4 ± 2.2 | 862.173 ± 0.72 | 1196.6 ± 2.2 | 838.706 ± 0.79 | 
